In this test the target is T1, Renilla luciferase 8 (RLuc8) (Renilla reniformis, UniProt P27652, A55T/C124A/S130A/K136R/A143M/M185V/M253L/S287L).
T1 construct: RLuc8 in pcDNA3.1(+), stably expressed in MDA-MB231 cells
T1 sequence (P27652 1-311 A55T/C124A/S130A/K136R/A143M/M185V/M253L/S287L): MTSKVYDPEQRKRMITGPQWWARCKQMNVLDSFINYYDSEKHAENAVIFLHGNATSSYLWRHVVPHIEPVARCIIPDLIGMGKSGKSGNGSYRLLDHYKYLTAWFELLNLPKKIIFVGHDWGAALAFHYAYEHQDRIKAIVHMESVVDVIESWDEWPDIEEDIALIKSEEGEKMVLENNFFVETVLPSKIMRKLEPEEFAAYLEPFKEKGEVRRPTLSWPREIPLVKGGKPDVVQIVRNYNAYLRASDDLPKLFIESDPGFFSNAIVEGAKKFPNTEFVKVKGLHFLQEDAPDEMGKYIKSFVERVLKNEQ
Kind of test: bioluminescence imaging of MDA-MB231 cells expressing the luciferase. The format is cell-based. As to conditions: stable cells.

One compound from PMC10098686, “Bright Molecular Strain Probe Templates for Reporting Protein–Protein Interactions” (Sensors (Basel, Switzerland), 2023) can be followed below.

Regarding `Oc1ccc(Cc2nc3c(Cc4ccccc4)nc(-c4ccc(O)cc4)cn3c2O)cc1` [nCTZ], the “bioluminescence imaging of MDA-MB231 cells expressing the luciferase” value is “exhibited the brightest signal when reacted with nCTZ”.
